Experimental findings from PubChem BioAssay AID1963849 (Molecular Pharmacology Branch, DTP, NCI, 2024) are described below.

pIC50: −log10 of the molar value. Where “and” joins values, the source holds several entries; their conditions need not be identical. Equal values may be shown once.

What is called pIC50 is −log10 of the IC50, conventionally taken in molar units. What is called viability, T/C is the result in the treated group divided by that in the control group, in per cent.

The test system of this test is 299254-011-R-J1-PDC complex spheroid viability. Nature of the test: Anticancer human tumor 299254-011-R-J1-PDC patient-derived melanoma cell line growth inhibition [POLQ]. To be noted: for viability, T/C: stronger effect = lower value. Here is the method:
Multicellular complex tumor spheroid response to Polymerase (POL) inhibitors (novobiocin, ART-558, RP6685) in combination with a variety of drugs and investigational agents in selected tumor cell lines
The POL inhibitors (novobiocin, ART-558, and RP6685) were evaluated both individually and in combination with standard of care and investigational anticancer small molecules within a complex spheroid model of solid tumors. . Complex spheroids include a stromal component modeled by human endothelial cells (HUVEC) and fibroblasts modeled by human mesenchymal stem cells (MSCs). The concentration ranges selected for each drug and investigational agent were based upon clinically achievable concentrations if the clinical Cmax of the agent was known.
Compounds. The drugs and investigational agents: novobiocin (NSC847541), ART-558 (NSC835418), RP-6685 (NSC848927), peposertib (NSC802822), ceralasertib (NSC780249), elimusertib (NSC800525), camonsertib (NSC841442), AZD-1390 (NSC803789), olaparib (NSC753686), talazoparib (NSC767125), rucaparib (NSC756644), sotorasib (NSC818433), MRTX-1133 (NSC836407), SN-38 (NSC673596), topotecan (NSC609699), epotoside (NSC141540), doxorubicin (NSC123127), gemcitabine (NSC613327), 5-fluorouracil (NSC19893), paclitaxel (NSC125973), vemurafenib (NSC761431), MSA-2 (NSC828583), SN-011 (NSC837082), adavosertib (NSC754352), prexasertib (NSC758257), carboplatin (NSC241240) and oxaliplatin (NSC266046), were obtained from the National Cancer Institute (NCI) Developmental Therapeutics Program Chemical Repository (21). The FDA-approved anticancer drug set is available from the Developmental Therapeutics Program at https://dtp.cancer.gov/organization/dscb/obtaining/. […] The stock solutions were prepared in dimethyl sulfoxide (DMSO, Sigma-Aldrich, St. Louis, MO, cat. D2650), except for the platinum compounds which were prepared in saline (Quality Biological, Gaithersburg, MD, cat. 114-055-101), at 800-fold the tested concentration and stored at -70 degrees C prior to their use. All drugs and investigational agents were tested over a range starting from a high concentration at or near the clinical Cmax and decreasing in half-log increments. If the clinical Cmax for an agent had not been determined, the highest concentration tested was 10 microM, except for SN-38, which was tested at a high concentration of 1 microM.
Cell Culture. All cells were maintained in an incubator at 37 degrees C and 5% CO2 with 95% humidity. The PDC lines were cultured according to standard operating procedures established by the NCI PDMR (https://pdmr.cancer.gov). Table 3 of the manuscript, lists the cell lines along with the number of the three cell types plated to form the mct-spheroids and media for tumor cell growth. After thawing, all PDC lines, except 997537-175-T-J1-PDC and 415267-285-R-J2-PDC, were cultured in Matrigel-coated flasks prepared with a working solution of 1X Ham's F-12 nutrient mix, without supplementation (Thermo Fisher Scientific, cat. 11765054), 100 U/mL penicillin-streptomycin (Thermo Fisher Scientific, cat. 15140122), and 2.5% Matrigel (Corning Inc., Corning, NY, cat. 354248) for the first three passages. The two PDC lines 997537-175-T-J1-PDC and 415267-285-R-J2-PDC were cultured on uncoated flasks. The 857933-349-R-J2-PDC line was cultured in 6C/Colon 1B media containing advanced DMEM/F-12 (Thermo Fisher Scientific, cat. 12634028), 10 mM HEPES (Thermo Fisher Scientific, cat. 15630080), 1X GlutaMAX supplement (Thermo Fisher Scientific, cat. 35050061), 0.1 mg/mL primocin (InvivoGen, San Diego, CA, cat. ant-pm-2), 10% defined fetal bovine serum, heat inactivated (HyClone Laboratories Inc., Logan, UT, cat. SH30070.03HI), 50% L-WRN conditioned media (ATCC, cat. CRL-3276), 1.25 mM N-Acetyl-L-cysteine (Sigma-Aldrich, cat. A9165), 10 mM nicotinamide (Sigma-Aldrich, cat. N0636), 1X B-27 supplement (Thermo Fisher Scientific, cat. 17504044), 1X N-2 supplement (Thermo Fisher Scientific, cat. […]

Where [1] appears, read: curve of first compound, second compound 0.0316 µM.
[2] abbreviates: curve of first compound, second compound 0.1 µM.
[3] abbreviates: curve of first compound, second compound 0.316 µM.
Setting [4] is: curve of first compound, second compound 1 µM.
Where [5] appears, read: curve of first compound, second compound 3.16 µM.
[6] abbreviates: curve of first compound, second compound 10 µM.
The mark [7] stands for this setting: second compound 0.0316 µM, first compound 0.0316 µM.
[8] abbreviates: second compound 0.0316 µM, first compound 0.1 µM.
[9] abbreviates: second compound 0.0316 µM, first compound 0.316 µM.
[10] abbreviates: second compound 0.0316 µM, first compound 1 µM.
[11] abbreviates: second compound 0.0316 µM, first compound 3.16 µM.
Where [12] appears, read: second compound 0.0316 µM, first compound 10 µM.
[13] abbreviates: second compound 0.1 µM, first compound 0.0316 µM.
[14] abbreviates: second compound 0.1 µM, first compound 0.1 µM.
The mark [15] stands for this setting: second compound 0.1 µM, first compound 0.316 µM.
The mark [16] stands for this setting: second compound 0.1 µM, first compound 1 µM.
The mark [17] stands for this setting: second compound 0.1 µM, first compound 3.16 µM.
Where [18] appears, read: second compound 0.1 µM, first compound 10 µM.
Setting [19] is: second compound 0.316 µM, first compound 0.0316 µM.
Setting [20] is: second compound 0.316 µM, first compound 0.1 µM.
The mark [21] stands for this setting: second compound 0.316 µM, first compound 0.316 µM.
The mark [22] stands for this setting: second compound 0.316 µM, first compound 1 µM.
[23] abbreviates: second compound 0.316 µM, first compound 3.16 µM.
[24] abbreviates: second compound 0.316 µM, first compound 10 µM.
[25] abbreviates: second compound 1 µM, first compound 0.0316 µM.
Setting [26] is: second compound 1 µM, first compound 0.1 µM.
Setting [27] is: second compound 1 µM, first compound 0.316 µM.
The mark [28] stands for this setting: second compound 1 µM, first compound 1 µM.
The mark [29] stands for this setting: second compound 1 µM, first compound 3.16 µM.
Where [30] appears, read: second compound 1 µM, first compound 10 µM.
[31] abbreviates: second compound 3.16 µM, first compound 0.0316 µM.
Setting [32] is: second compound 3.16 µM, first compound 0.1 µM.
The mark [33] stands for this setting: second compound 3.16 µM, first compound 0.316 µM.
[34] abbreviates: second compound 3.16 µM, first compound 1 µM.
Where [35] appears, read: second compound 3.16 µM, first compound 3.16 µM.
[36] abbreviates: second compound 3.16 µM, first compound 10 µM.
[37] abbreviates: second compound 10 µM, first compound 0.0316 µM.
The mark [38] stands for this setting: second compound 10 µM, first compound 0.1 µM.
Where [39] appears, read: second compound 10 µM, first compound 0.316 µM.
[40] abbreviates: second compound 10 µM, first compound 1 µM.
Where [41] appears, read: second compound 10 µM, first compound 3.16 µM.
Where [42] appears, read: second compound 10 µM, first compound 10 µM.
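Also: spheroids exposed to drugs for one week before measurement.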
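For viability, T/C in this document: percent viability relative to DMSO vehicle control taken as 100%.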

As for `CNCc1ccc(-c2[nH]c3cc(F)cc4c3c2CCNC4=O)cc1` + COC1C(OC(N)=O)C(O)C(Oc2ccc3c(O)c(NC(=O)c4ccc(O)c(CC=C(C)C)c4)c(=O)oc3c2C)OC1(C)C, the pIC50 under setting [1] is below 5.00; the negative logarithm of the IC50 (pIC50) under setting [2] is below 5.00; the pIC50 under setting [3] was below 5.00; the pIC50 under setting [4] is below 5.00; the negative-log IC50 (pIC50) under setting [5] was below 5.00; the negative logarithm of the IC50 (pIC50) under setting [6] was below 5.00. Further, the viability, T/C is 99.5% under setting [7]; 98.7% under setting [8]; 102% under setting [9]; 117% under setting [10]; 114% under setting [11]; 103% under setting [12]. In addition, the viability, T/C is 114% under setting [13]; 106% under setting [14]; 102% under setting [15]; 107% under setting [16]; 118% under setting [17]; 133% under setting [18]. The viability, T/C runs as follows: under setting [19], 91.6%; under setting [20], 94.9%; under setting [21], 98.7%; under setting [22], 105%; under setting [23], 97.2%; under setting [24], 116%. For the same compound, the viability, T/C is 91.8% under setting [25]; 105% under setting [26]; 105% under setting [27]; 117% under setting [28]; 117% under setting [29]; 115% under setting [30]. The viability, T/C reads like this: under setting [31], 113%; under setting [32], 90.9%; under setting [33], 95.4%; under setting [34], 118%; under setting [35], 105%; under setting [36], 111%. In addition, the viability, T/C is 113% under setting [37]; 104% under setting [38]; 111% under setting [39]; 106% under setting [40]; 96.3% under setting [41]; 100% under setting [42].
As to `COc1cccc2c1C(=O)c1c(O)c3c(c(O)c1C2=O)CC(O)(C(=O)CO)CC3OC1CC(N)C(O)C(C)O1` (stereo not given) + Nc1ccc(C#CCN(C(=O)Cc2ncc(C(F)(F)F)cc2C(F)(F)F)c2ccc(F)cc2)nn1, the pIC50 was 5.97 under setting [1]; 6.03 under setting [2]; 5.99 under setting [3]; 6.08 under setting [4]; 6.12 under setting [5]; 6.27 under setting [6]. In addition, the viability, T/C runs as follows: under setting [7], 120%; under setting [8], 85.1%; under setting [9], 83.1%; under setting [10], 56.5%; under setting [11], 17.8%; under setting [12], 1.11%. In addition, the viability, T/C is, setting by setting: under setting [13], 89.8%; under setting [14], 94.6%; under setting [15], 63.5%; under setting [16], 54.5%; under setting [17], 17.9%; under setting [18], 1.22%. Also, the viability, T/C reads like this: under setting [19], 93.1%; under setting [20], 75.2%; under setting [21], 65.9%; under setting [22], 61.2%; under setting [23], 16%; under setting [24], 2.99%. In addition, the viability, T/C by setting is: under setting [25], 86.6%; under setting [26], 72.2%; under setting [27], 87.2%; under setting [28], 43.9%; under setting [29], 9.65%; under setting [30], 0.5%. Further, the viability, T/C reads like this: under setting [31], 94.9%; under setting [32], 85.7%; under setting [33], 77.1%; under setting [34], 42.7%; under setting [35], 0.52%; under setting [36], 2.06%. The viability, T/C runs as follows: under setting [37], 77.7%; under setting [38], 85.9%; under setting [39], 65.3%; under setting [40], 30.5%; under setting [41], 0.39%; under setting [42], 2.85%.
For the compound `COc1cccc(OCCCN)c1-c1cc(Nc2cnc(C#N)cn2)n[nH]1`, the viability, T/C is, setting by setting: (compound 0.00316 µM) 98.2% and 103% (2×); (compound 0.01 µM) 92.8% and 112% and 96%; (compound 0.0316 µM) 60.5% and 75.7% and 77.2%; (compound 0.1 µM) 52.1% and 57.2% and 56.9%; (compound 0.316 µM) 37.6% and 41.3% and 50.1%; (compound 1 µM) 38.9% and 37.3% and 45.4%. For the same compound, the pIC50 (curve of compound) was 7.10 and 6.87 and 6.57.
For `CC(=O)O[C@H]1C(=O)[C@@]2(C)[C@H]([C@H](OC(=O)c3ccccc3)[C@]3(O)C[C@H](OC(=O)[C@H](O)[C@@H](NC(=O)c4ccccc4)c4ccccc4)C(C)=C1C3(C)C)[C@]1(OC(C)=O)CO[C@@H]1C[C@@H]2O`, the viability, T/C runs as follows: (compound 0.00949 µM) 84.8% and 82.2% and 94.2%; (compound 0.03 µM) 76.5% and 84.1% and 70.9%; (compound 0.0949 µM) 49.1% and 47.2% and 41.7%; (compound 0.3 µM) 31.8% and 42.1% and 26.9%; (compound 0.949 µM) 22.3% and 28.3% and 21.8%; (compound 3 µM) 28.1% and 22.8% and 15.4%. Where the note is “curve of compound”, the negative-log IC50 (pIC50) is 7.03 and 6.90 and 7.15.
In the case of `CC1COCCN1c1cc(-c2ccnn2C)c2ccnc(-c3ccn[nH]3)c2n1` (stereo not given), the viability, T/C (compound 0.0316 µM) is 96.6% and 111% and 99%; the viability, T/C (compound 0.1 µM) was 67.8% and 70% and 78.4%; the viability, T/C (compound 0.316 µM) is 46.7% and 46.5% and 50.2%; the viability, T/C (compound 1 µM) was 30.8% and 31.4% and 31.7%; the viability, T/C (compound 3.16 µM) is 21.6% and 31.1% and 23.9%; the viability, T/C (compound 10 µM) was 18.8% and 20.6% and 22.7%. For the same compound, the pIC50 (curve of compound) was 6.59 and 6.58 and 6.49.
